Structures can show the parent of a compound that is named as a salt.
Target: T1, human 5-HT6 receptor (Homo sapiens, UniProt P50406)
T1 construct: host or cells: CHO-K1 cells, stably transfected; membranes prepared in house
Test: Human 5-HT6 Receptor Binding Assay ([3H]LSD displacement, scintillation beads)
Details: membranes of CHO-K1 cells with recombinant human 5-HT6, 4 nM [3H]LSD; Table 1, class symbols; read-out: h5-HT6 (Ki)

T1 sequence (P50406 whole entry): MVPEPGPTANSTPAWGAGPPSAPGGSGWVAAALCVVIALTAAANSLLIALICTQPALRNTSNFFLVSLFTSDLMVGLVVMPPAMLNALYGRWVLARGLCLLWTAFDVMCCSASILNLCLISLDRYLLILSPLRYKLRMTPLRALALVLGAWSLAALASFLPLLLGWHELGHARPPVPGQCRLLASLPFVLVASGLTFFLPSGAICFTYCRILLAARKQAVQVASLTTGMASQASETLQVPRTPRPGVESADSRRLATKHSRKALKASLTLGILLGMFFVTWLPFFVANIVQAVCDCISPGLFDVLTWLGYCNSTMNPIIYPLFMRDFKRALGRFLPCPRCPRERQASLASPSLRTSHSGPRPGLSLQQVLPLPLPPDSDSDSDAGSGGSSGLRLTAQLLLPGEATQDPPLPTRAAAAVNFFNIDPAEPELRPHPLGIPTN

| Ki [nM] | Compound |
| --- | --- |
| < 500 | COc1ccc(S(=O)(=O)c2ccc3oc4c(c3c2)CCNC4)cc1 [Example 245] |
| < 500 | COc1cccc(S(=O)(=O)c2ccc3oc4c(c3c2)CCNC4)c1 [Example 246] |
| < 500 | O=S(=O)(c1ccc2c(c1)OCCO2)c1ccc2oc3c(c2c1)CCNC3 [Example 247] |
| < 500 | O=S(=O)(c1ccc(Oc2ccccc2)cc1)c1ccc2oc3c(c2c1)CCNC3 [Example 248] |
| < 500 | O=S(=O)(c1ccc2oc3c(c2c1)CCNC3)c1cccc2ccccc12 [Example 249] |
| < 500 | O=S(=O)(c1ccc(Cl)cc1)c1ccc2oc3c(c2c1)CCNC3 [Example 250] |
| < 500 | O=S(=O)(c1ccc2ccccc2c1)c1ccc2oc3c(c2c1)CCNC3 [Example 251] |
| < 500 | Cc1ccc(S(=O)(=O)c2ccc3oc4c(c3c2)CCNC4)cc1 [Example 252] |
| > 1000 | O=[N+]([O-])c1ccc(S(=O)(=O)c2ccc3oc4c(c3c2)CCNC4)cc1 [Example 253] |
| < 500 | Cc1ccc(F)cc1S(=O)(=O)c1ccc2oc3c(c2c1)CCNC3 [Example 254] |
| < 500 | O=S(=O)(c1cc(F)cc(Cl)c1)c1ccc2oc3c(c2c1)CCNC3 [Example 255] |
| < 500 | O=S(=O)(c1cc(F)cc(F)c1)c1ccc2oc3c(c2c1)CCNC3 [Example 256] |
| < 500 | O=S(=O)(c1ccc(Cl)c(C(F)(F)F)c1)c1ccc2oc3c(c2c1)CCNC3 [Example 257] |
| < 500 | O=S(=O)(c1ccc(F)c(Cl)c1)c1ccc2oc3c(c2c1)CCNC3 [Example 258] |
| < 500 | CC(C)c1ccc(S(=O)(=O)c2ccc3oc4c(c3c2)CCNC4)cc1 [Example 259] |
| < 500 | O=S(=O)(c1ccc2oc3c(c2c1)CCNC3)c1cccc(Cl)c1Cl [Example 260, 6-[(2,3-dichlorophenyl)sulfonyl]-1,2,3,4-tetrahydro[1]benzofuro[2,3-c]pyridine] |
| < 500 | O=S(=O)(c1ccc(Cl)c(Cl)c1)c1ccc2oc3c(c2c1)CCNC3 [Example 261, 6-[(3,4-dichlorophenyl)sulfonyl]-1,2,3,4-tetrahydro[1]benzofuro[2,3-c]pyridine] |
| < 500 | O=S(=O)(c1cc(Cl)cc(Cl)c1)c1ccc2oc3c(c2c1)CCNC3 [Example 262, 6-[(3,5-dichlorophenyl)sulfonyl]-1,2,3,4-tetrahydro[1]benzofuro[2,3-c]pyridine] |
| < 500 | O=S(=O)(c1cccc(Br)c1)c1ccc2oc3c(c2c1)CCNC3 [Example 263, 6-[(3-bromophenyl)sulfonyl]-1,2,3,4-tetrahydro[1]benzofuro[2,3-c]pyridine] |
| < 500 | O=S(=O)(c1ccc(F)cc1)c1ccc2oc3c(c2c1)CCNC3 [Example 264] |
| < 500 | O=S(=O)(c1ccc2oc3c(c2c1)CCNC3)c1cc(Cl)ccc1Cl [Example 266, 6-[(2,5-dichlorophenyl)sulfonyl]-1,2,3,4-tetrahydro[1]benzofuro[2,3-c]pyridine] |
| < 500 | CC(C)Oc1cccc(S(=O)(=O)c2ccc3oc4c(c3c2)CCNC4)c1 [Example 267] |
| < 500 | Cc1cc(S(=O)(=O)c2ccc3oc4c(c3c2)CCNC4)ccc1F [Example 268] |

| Ki [nM] | Compound |
| --- | --- |
| 500 to 1000 | COC(=O)c1cccc(S(=O)(=O)c2ccc3oc4c(c3c2)CCNC4)c1 [Example 269] |
| < 500 | O=S(=O)(c1cccc(OC(F)(F)F)c1)c1ccc2oc3c(c2c1)CCNC3 [Example 270, 6-{[3-(trifluoromethoxy)phenyl]sulfo-nyl}-1,2,3,4-tetrahydro[1]benzofuro[2,3-c]pyridine] |
| > 1000 | N#Cc1ccc(S(=O)(=O)c2ccc3oc4c(c3c2)CCNC4)cc1 [Example 271] |
| 500 to 1000 | CC(=O)Nc1ccc(S(=O)(=O)c2ccc3oc4c(c3c2)CCNC4)cc1 [Example 272] |
| < 500 | O=S(=O)(c1ccc2oc3c(c2c1)CCNC3)c1cc(F)ccc1F [Example 273] |
| < 500 | O=S(=O)(c1ccc2oc3c(c2c1)CCNC3)c1c(F)c(F)cc(F)c1F [Example 274] |
| 500 to 1000 | O=S(=O)(c1ccc(OC(F)(F)F)cc1)c1ccc2oc3c(c2c1)CCNC3 [Example 275, 6-{[4-(trifluoromethoxy)phenyl]sulfo-nyl}-1,2,3,4-tetrahydro[1]benzofuro[2,3-c]pyridine] |
| < 500 | O=S(=O)(c1ccc2oc3c(c2c1)CCNC3)c1ccccc1Cl [Example 276] |
| < 500 | O=S(=O)(c1ccc2oc3c(c2c1)CCNC3)c1ccccc1F [Example 277] |
| < 500 | O=S(=O)(c1ccc(C(F)(F)F)cc1)c1ccc2oc3c(c2c1)CCNC3 [Example 278] |
| < 500 | [O-][S+](c1ccc2oc3c(c2c1)CCNC3)c1ccccc1-c1ccccc1 (centres unmarked) [Example 279] |
| > 1000 | O=S(=O)(c1ccc2oc3c(c2c1)CCNC3)C1CCCCC1 [Example 280] |
| > 1000 | CC(C)S(=O)(=O)c1ccc2oc3c(c2c1)CCNC3 [Example 281] |
| < 500 | CC1NCCc2c1oc1ccc(S(=O)(=O)c3cccc(C(F)(F)F)c3)cc21 (centres unmarked) [Example 282] |
| < 500 | CC1NCCc2c1oc1ccc(S(=O)(=O)c3cccc(F)c3)cc21 (centres unmarked) [Example 283] |
| < 500 | CC1NCCc2c1oc1ccc(S(=O)(=O)c3ccc(F)c(F)c3)cc21 (centres unmarked) [Example 284] |
| > 1000 | COc1ccc(S(=O)(=O)c2ccc3oc4c(c3c2)CCNC4C)cc1F (centres unmarked) [Example 285] |
| < 500 | CC1(C)CNCc2oc3cc(S(=O)(=O)c4ccccc4)ccc3c21 [Example 286] |
| < 500 | CC1(C)CNCc2oc3cc(S(=O)(=O)c4cc(F)cc(F)c4)ccc3c21 [Example 287] |
| < 500 | COc1ccc(S(=O)(=O)c2ccc3c4c(oc3c2)C(C)(C)NCC4)cc1F [Example 288] |
| < 500 | CC1(C)NCCc2c1oc1cc(S(=O)(=O)c3cccc(C(F)(F)F)c3)ccc21 [Example 289] |
| < 500 | CC1(C)NCCc2c1oc1cc(S(=O)(=O)c3ccc(F)c(F)c3)ccc21 [Example 290] |
| < 500 | CC1(C)NCCc2c1oc1cc(S(=O)(=O)c3cccc(OC(F)(F)F)c3)ccc21 [Example 291, 1,1-dimethyl-7-{[3-(trifluoromethoxy)phenyl]sulfo-nyl}-1,2,3,4-tetrahydro[1]benzofuro[2,3-c]pyridine] |

| Ki [nM] | Compound |
| --- | --- |
| < 500 | CC1(C)NCCc2c1oc1cc(S(=O)(=O)c3ccccc3)ccc21 [Example 292] |
| < 500 | CC1(C)NCCc2c1oc1cc(S(=O)(=O)c3cc(F)cc(F)c3)ccc21 [Example 293] |
| < 500 | O=S(=O)(c1cccc(Cl)c1)c1ccc2c(c1)C1CCNCC1O2 (centres unmarked) [Example 294, 6-[(3-Chlorophenyl)sulfonyl]-1,2,3,4,4a,9a-hexahydro[1]benzofuro[2,3-c]pyridine trifluoroacetic acid salt] |
| < 500 | CC1(C)CNC2(CCOC2)c2oc3cc(S(=O)(=O)c4ccccc4)ccc3c21 (centres unmarked) [Example 295] |
| < 500 | O=S(=O)(c1ccccc1)c1ccc2c3c(oc2c1)C1(CCOCC1)NCC3 [Example 296] |
| < 500 | [O-][S+](c1cccc(C(F)(F)F)c1)c1ccc2c3c(oc2c1)C1(CCOCC1)NCC3 (centres unmarked) [Example 297] |
| < 500 | O=S(=O)(c1cccc(C(F)(F)F)c1)c1ccc2c3c(oc2c1)C1(CCOCC1)NCC3 [Example 298] |
| < 500 | [O-][S+](c1cccc(OC(F)(F)F)c1)c1ccc2c3c(oc2c1)C1(CCOCC1)NCC3 (centres unmarked) [Example 299, 7-{[3-(trifluoromethoxy)phenyl]sulfi-nyl}-2′,3,3′,4,5′,6′-hexahydro-2H-spiro[1-benzofuro[2,3-c]pyridine-1,4′-pyran]] |
| < 500 | O=S(=O)(c1cccc(OC(F)(F)F)c1)c1ccc2c3c(oc2c1)C1(CCOCC1)NCC3 [Example 300, 7-{[3-(trifluoromethoxy)phenyl]sulfo-nyl}-2′,3,3′,4,5′,6′-hexahydro-2H-spiro[1-benzofuro[2,3-c]pyridine-1,4′-pyran]] |
| < 500 | O=S(=O)(c1cc(F)cc(F)c1)c1ccc2c3c(oc2c1)C1(CCOCC1)NCC3 [Example 301, 7-[(3,5-difluorophenyl)sulfonyl]-2′,3,3′,4,5′,6′-hexahydro-2H-spiro[1-benzofuro[2,3-c]pyridine-1,4′-pyran]] |
| < 500 | O=S(=O)(c1cc(F)cc(F)c1)c1ccc2c3c(oc2c1)C1(CCOC1)NCC3 (centres unmarked) [Example 302] |
| < 500 | O=S(=O)(c1cccc(Cl)c1)c1ccc2c3c(oc2c1)C1(CCOC1)NCC3 (centres unmarked) [Example 303] |
| < 500 | O=S(=O)(c1cccc(C(F)(F)F)c1)c1ccc2c3c(oc2c1)C1(CCOC1)NCC3 (centres unmarked) [Example 304] |
| < 500 | O=S(=O)(c1cc(F)cc(F)c1)c1ccc2c3c(oc2c1)C1(CCOC1)NCC3 (centres unmarked) [Example 305] |
| < 500 | O=S(=O)(c1cccc(Cl)c1)c1ccc2c3c(oc2c1)C1(CCOC1)NCC3 (centres unmarked) [Example 306] |
| < 500 | O=S(=O)(c1cccc(C(F)(F)F)c1)c1ccc2c3c(oc2c1)C1(CCOC1)NCC3 (centres unmarked) [Example 307] |
| < 500 | O=S(=O)(c1cc(F)cc(F)c1)c1ccc2c3c([nH]c2c1)C1(CCCOC1)NCC3 (centres unmarked) [Example 312] |
| < 500 | O=S(=O)(c1ccccc1)c1ccc2c(c1)OC1CNCCC21 (centres unmarked) [Example 321, 7-(phenylsulfonyl)-1,2,3,4,4a,9a-hexahydro[1]benzofuro[2,3-c]pyridine] |
| < 500 | O=S(=O)(c1ccc(Cl)cc1)c1ccc2c(c1)OC1CNCCC21 (centres unmarked) [Example 322] |
| > 1000 | COc1ccc(S(=O)(=O)c2ccc3c(c2)OC2CNCCC32)cc1 (centres unmarked) [Example 323] |
| < 500 | O=S(=O)(c1ccccc1)c1ccc2c(c1)OC1CNCCC21 (centres unmarked) [Example 324, 7-(phenylsulfonyl)-1,2,3,4,4a,9a-hexahydro[1]benzofuro[2,3-c]pyridine] |
| 500 to 1000 | COc1ccc(S(=O)(=O)c2ccc3c(c2)OC2CNCCC32)cc1 (centres unmarked) [Example 325] |
| < 500 | O=S(=O)(c1ccccc1)c1ccc2c(c1)OC1CNCCC21 (centres unmarked) [Example 326, 7-(phenylsulfonyl)-1,2,3,4,4a,9a-hexahydro[1]benzofuro[2,3-c]pyridine] |

| Compound | Ki [nM] |
| --- | --- |
| O=S(=O)(c1cccc(F)c1)c1ccc2c3c([nH]c2c1)C1(CCCOC1)NCC3 (centres unmarked) [Example 317] | < 500 |
| Cc1cccc([S+]([O-])c2ccc3c(c2)OC2CNCCC32)n1 (centres unmarked) [Example 327] | > 1000 |
